Assay results published in patent US5134137A, “Cephalosporin antibiotics” (The Upjohn Company, priority 1990, dated 1992).
Read-outs that look alike come from different tables or passages of the source.

How the values were obtained:
Format in all cases: cell-based
Streptococcus bovis = test: MIC, agar dilution, Streptococcus bovis; conditions: Streptococcus equinus; strain UC6281; read-out: MIC
Experimental: (§1) Stock solution of each test antibiotic compound were prepared to have a concentration of 2 mg. of the test compound per milliliter in sterile water of 0.1M ammonium acetate solution. The amount of each compound used was adjusted for base compound activity as calculated from the purity data for the selected batch of compound.
(§2) The dilution procedure described by Washington and Sutter [Manual of Clinical Microbiology, 3rd, Edit. (Lennett, E. H. et al, Eds.), pp. 453-458 (1980), American Society for Microbiology, Washington, D.C.] was modified so that serial concentrations of 128 to 0.0625 microgram/ml. in sterile water was obtained. Then 1.5 ml. aliquots of these test antibiotic dilution mixtures are added to 13.5 molten (50° C.) Mueller-Hinton agar. Each resulting mixture is poured into 15×100 mm, sterile Petri plates and allowed to dry at room temperature overnight.
(§3) Test bacterial cultures are maintained at -70° C. on glass beads. [See R. J. Yancey, Jr. et al, Amer. Jr. of Vet. Research, 48, No. 7, pp. 1050-1053, (1987)]. At least one bacteria-laden bead per culture is dropped into one ml. of brain heart infusion (BHI) broth for overnight culture at 37° C. in 5% V/V carbon dioxide in air atmosphere.
(§4) On the data of assay, 2 to 8 drops of the bacterial broth cultures are transferred to fresh BHI broth (1 ml.) and the mixture is incubated for 4 to 6 hours at 37° C. in a 5% V/V carbon dioxide in air atmosphere. The resulting cultures are then diluted to match a 0.5 MacFarland standard and further diluted 1:20 V/V with sterile saline solution.
(§5) A 0.001 ml. drop of the resulting mixture, containing approximately 10^3 to 10^4 colony forming units (CFU) of each test bacteria organism, is dispensed onto the surface of the test antibiotic compound test plates with a Steer's type replicator. The resulting innoculated plates are incubated 16 to 18 hours at 37° C. with a carbon dioxide atmosphere.
as §1, with “Stock solutions” for “Stock solution”
as §2, with “mm.” for “mm,”
as §2, with “for Microbiology.” for “for Microbiology,”, “15×100 mm.” for “15×100 mm,”
as §3, with “culture” for “cultures”
(§6) On the day of assay, 2 to 8 drops of the bacterial broth cultures are transferred to fresh BHI broth (1 ml.) and the mixture is incubated for 4 to 6 hours at 37° C. in a 5% V/V carbon dioxide in air atmosphere. […]

Micrococcus luteus = test: MIC, agar dilution, Micrococcus luteus; conditions: Micrococcus luteus; strain UC130; read-out: MIC
Experimental: as §1, §2, §3, §4, §5
as §1, with “Stock solutions” for “Stock solution”
as §2, with “mm.” for “mm,”
as §2, with “for Microbiology.” for “for Microbiology,”, “15×100 mm.” for “15×100 mm,”
as §3, with “culture” for “cultures”
as §6

Enterococcus faecalis = test: MIC, agar dilution, Enterococcus faecalis; conditions: Enterococcus faecalis; strain UC694; read-out: MIC
Experimental: as §1, with “Stock solutions” for “Stock solution”
as §2, §3, §4, §5, §1
as §2, with “mm.” for “mm,”
as §2, with “for Microbiology.” for “for Microbiology,”, “15×100 mm.” for “15×100 mm,”
as §3, with “culture” for “cultures”
as §6

Escherichia coli = test: MIC, agar dilution, Escherichia coli; conditions: Escherichia coli, read-out: MIC
Experimental: as §1, §2, §3, §4, §5
as §1, with “Stock solutions” for “Stock solution”
as §2, with “mm.” for “mm,”
as §2, with “for Microbiology.” for “for Microbiology,”, “15×100 mm.” for “15×100 mm,”
as §3, with “culture” for “cultures”
as §6

Enterococcus faecium = test: MIC, agar dilution, Enterococcus faecium; conditions: Enterococcus faecium; strain UC241; read-out: MIC
Experimental: as §1, with “Stock solutions” for “Stock solution”
as §2, §3, §4, §5, §1
as §2, with “mm.” for “mm,”
as §2, with “for Microbiology.” for “for Microbiology,”, “15×100 mm.” for “15×100 mm,”
as §3, with “culture” for “cultures”
as §6

[1] = test system: Bordetella bronchiseptica; test: MIC, agar dilution, Bordetella bronchiseptica; conditions: Bordetella bronchiseptica; strain UC6313; read-out: MIC
Experimental: as §1, §2, §3, §4, §5
as §1, with “Stock solutions” for “Stock solution”
as §2, with “mm.” for “mm,”
as §2, with “for Microbiology.” for “for Microbiology,”, “15×100 mm.” for “15×100 mm,”
as §3, with “culture” for “cultures”
as §6

[2] = test system: Streptococcus dysgalactiae; test: MIC, agar dilution, Streptococcus dysgalactiae; conditions: Streptococcus dysgalactiae; strain UC251; read-out: MIC
Experimental: as §1, §2, §3, §4, §5
as §1, with “Stock solutions” for “Stock solution”
as §2, with “mm.” for “mm,”
as §2, with “for Microbiology.” for “for Microbiology,”, “15×100 mm.” for “15×100 mm,”
as §3, with “culture” for “cultures”
as §6

Pseudomonas aeruginosa = test: MIC, agar dilution, Pseudomonas aeruginosa; conditions: Pseudomonas aeruginosa, ATCC27853; strain ATCC 27853; read-out: MIC
Experimental: as §1, §2, §3, §4, §5
as §1, with “Stock solutions” for “Stock solution”
as §2, with “mm.” for “mm,”
as §2, with “for Microbiology.” for “for Microbiology,”, “15×100 mm.” for “15×100 mm,”
as §3, with “culture” for “cultures”
as §6

Streptococcus uberis = test: MIC, agar dilution, Streptococcus uberis; conditions: Streptococcus uberis, read-out: MIC
Experimental: as §1, §2, §3, §4, §5
as §1, with “Stock solutions” for “Stock solution”
as §2, with “mm.” for “mm,”
as §2, with “for Microbiology.” for “for Microbiology,”, “15×100 mm.” for “15×100 mm,”
as §3, with “culture” for “cultures”
as §6

Corynebacterium pyogenes = test: MIC, agar dilution, Corynebacterium pyogenes; conditions: strain 213-2; read-out: MIC
Experimental: as §1, §2, §3, §4, §5
as §1, with “Stock solutions” for “Stock solution”
as §2, with “mm.” for “mm,”
as §2, with “for Microbiology.” for “for Microbiology,”, “15×100 mm.” for “15×100 mm,”
as §3, with “culture” for “cultures”
as §6

Pasteurella hemolytica = test: MIC (minimum inhibitory concentration), agar dilution, Pasteurella hemolytica; conditions: Pasteurella, read-out: MIC
Experimental: as §1, §2, §3, §4, §5
as §1, with “Stock solutions” for “Stock solution”
as §2, with “mm.” for “mm,”
as §2, with “for Microbiology.” for “for Microbiology,”, “15×100 mm.” for “15×100 mm,”
as §3, with “culture” for “cultures”
as §6

Pasteurella multocida = test: MIC, agar dilution, Pasteurella multocida; conditions: Pasteurella multocida; strain UC9581; read-out: MIC
Experimental: as §1, §2, §3, §4, §5
as §1, with “Stock solutions” for “Stock solution”
as §2, with “mm.” for “mm,”
as §2, with “for Microbiology.” for “for Microbiology,”, “15×100 mm.” for “15×100 mm,”
as §3, with “culture” for “cultures”
as §6

Salmonella choleraesuis = test: MIC, agar dilution, Salmonella choleraesuis; conditions: Salmonella enterica, read-out: MIC
Experimental: as §1, §2, §3, §4, §5
as §1, with “Stock solutions” for “Stock solution”
as §2, with “mm.” for “mm,”
as §2, with “for Microbiology.” for “for Microbiology,”, “15×100 mm.” for “15×100 mm,”
as §3, with “culture” for “cultures”
as §6

Streptococcus suis = test: MIC, agar dilution, Streptococcus suis; conditions: Streptococcus suis; strain 650-2; read-out: MIC
Experimental: as §1, §2, §3, §4, §5
as §1, with “Stock solutions” for “Stock solution”
as §2, with “mm.” for “mm,”
as §2, with “for Microbiology.” for “for Microbiology,”, “15×100 mm.” for “15×100 mm,”
as §3, with “culture” for “cultures”
as §6

Streptococcus agalactiae = test: MIC, agar dilution, Streptococcus agalactiae; conditions: Streptococcus agalactiae, read-out: MIC
Experimental: as §1, §2, §3, §4, §5
as §1, with “Stock solutions” for “Stock solution”
as §2, with “mm.” for “mm,”
as §2, with “for Microbiology.” for “for Microbiology,”, “15×100 mm.” for “15×100 mm,”
as §3, with “culture” for “cultures”
as §6

Salmonella typhimurium = test: MIC, agar dilution, Salmonella typhimurium; conditions: Salmonella enterica, read-out: MIC
Experimental: as §1, §2, §3, §4, §5
as §1, with “Stock solutions” for “Stock solution”
as §2, with “mm.” for “mm,”
as §2, with “for Microbiology.” for “for Microbiology,”, “15×100 mm.” for “15×100 mm,”
as §3, with “culture” for “cultures”
as §6

Staphylococcus aureus = test: MIC, agar dilution, Staphylococcus aureus; conditions: Staphylococcus aureus, read-out: MIC
Experimental: as §1, §2, §3, §4, §5
as §1, with “Stock solutions” for “Stock solution”
as §2, with “mm.” for “mm,”
as §2, with “for Microbiology.” for “for Microbiology,”, “15×100 mm.” for “15×100 mm,”
as §3, with “culture” for “cultures”
as §6

Measured: MIC

CCCSSCC1=C(C(=O)O)N2C(=O)[C@@H](NC(=O)/C(=N\OC)c3csc(N)n3)[C@H]2SC1 [Example 11]
0.5 µg/mL: Micrococcus luteus | Pasteurella hemolytica; strain UC6531 | Pasteurella hemolytica; strain UC6532 | Pasteurella hemolytica; strain UC9582
0.25 µg/mL: Streptococcus uberis; strain UC3946
≤ 0.06 µg/mL: [2] | Streptococcus suis
> 32 µg/mL: Streptococcus bovis | Enterococcus faecalis | Enterococcus faecium | Pseudomonas aeruginosa | Corynebacterium pyogenes | Salmonella choleraesuis; CHOLERAESUIS / UC6077, strain UC6077 | Streptococcus agalactiae; strain UC6892
8 µg/mL: Staphylococcus aureus; strain UC6093 | Staphylococcus aureus; strain UC6097 | Staphylococcus aureus; strain UC9203
16 µg/mL: Escherichia coli; strain UC3784 | Escherichia coli; strain UC9670 | Streptococcus uberis; strain UC6159 | Salmonella typhimurium; TYPHIMURIUM / UC6162, strain UC6162
2 µg/mL: Streptococcus agalactiae; strain UC3947
32 µg/mL: Escherichia coli; strain UC6720 | [1] | Pasteurella multocida | Salmonella choleraesuis; CHOLERAESUIS / UC6073, strain UC6073 | Salmonella typhimurium; TYPHIMURIUM / UC6164, strain UC6164
